Experimental findings from patent US9156822B2, “Functionally selective ligands of dopamine D2 receptors” (The University of North Carolina at Chapel Hill, priority 2010, dated 2015) are described below.

For data set [1], the target named is hD2 receptors (Homo sapiens (Human), UniProt P14416). Description: D2 mediated cAMP GloSensor assay. On cAMP (GloSensor) activity in words (merged EC50/Emax cell): key: neutral: Neutral ligands are either antagonists or are inactive. It counts as cell-based. To be noted: for Emax: read-out: cAMP (GloSensor) Emax.
Data set [2] concerns the target T1, D2 receptors (Homo sapiens (Human), UniProt P14416). Description: CHO-D2 radioligand binding assay ([3H]N-methylspiperone competition). To be noted: read-out: D2 Binding Ki ± SEM.
Target sequence in this assay (P14416 whole entry): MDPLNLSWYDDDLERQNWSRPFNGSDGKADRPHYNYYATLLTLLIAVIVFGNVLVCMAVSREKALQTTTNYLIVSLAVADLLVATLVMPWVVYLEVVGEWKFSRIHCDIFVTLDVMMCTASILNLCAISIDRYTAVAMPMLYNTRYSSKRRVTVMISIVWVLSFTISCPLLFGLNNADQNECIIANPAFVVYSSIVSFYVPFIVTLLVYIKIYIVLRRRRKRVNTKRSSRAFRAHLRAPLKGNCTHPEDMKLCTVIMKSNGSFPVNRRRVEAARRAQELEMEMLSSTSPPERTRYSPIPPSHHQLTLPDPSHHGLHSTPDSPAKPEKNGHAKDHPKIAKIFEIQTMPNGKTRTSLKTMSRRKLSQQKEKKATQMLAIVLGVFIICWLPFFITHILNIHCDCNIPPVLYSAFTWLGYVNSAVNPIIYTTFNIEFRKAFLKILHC
For data set [3], the target named is T1, D2 receptors. In words: D2 β-arrestin recruitment (Tango) assay. It counts as cell-based. To be noted: for Emax: normalized to quinpirole (100%). The procedure:
The next day, cells were plated in white, clear-bottom, 384-well plates (Greiner, 10,000 cells/well, 50 μl/well) in DMEM containing 1% dialyzed fetal bovine serum. […] Data were normalized to vehicle (0%) and quinpirole (100%) controls and regressed using the sigmoidal dose-response function built into GraphPad Prism 4.0.
Target sequence in this assay (P14416 whole entry, looked up): as the sequence (P14416 whole entry) above
In general terms: Activated receptors often draw arrestin, which recruitment assays turn into a signal.

Data set [4] concerns wild-type and β-arrestin-2 knockout mice. The conditions noted are these: β-arrestin-2 knockout mice, i.p., 5.0 mg/kg (haloperidol 2.0 mg/kg), 30 and 60 min.
Setting [5] is: HEK293T, isoproterenol-stimulated cAMP.
[6] abbreviates: normalized to quinpirole, negative = inverse agonist.
Setting [7] is: CHO-D2 membranes, [3H]N-methylspiperone.
[8] abbreviates: HTLA cells, read-out: β-arrestin (Tango) EC50.

Where two headings read alike, the source gives them in different places.

hD2 receptors, sequence (P14416 whole entry): as above

For the molecule `O=C1CCc2ccc(OCCCN3CCCN(c4cccc(Cl)c4Cl)CC3)cc2N1` [Compound 1, 7-(3-(4-(2,3-dichlorophenyl)-1,4-diazepan-1-yl)propoxy)-3,4-dihydroquinolin-2(1H)-one], the melting point is 130 to 131 °C.

Molecule `O=C1NCCc2ccc(OCCCN3CCCN(c4cccc(Cl)c4Cl)CC3)cc21` [Compound 5, 7-(3-(4-(2,3-dichlorophenyl)-1,4-diazepan-1-yl)propoxy)-3,4-dihydroisoquinolin-1(2H)-one] yielded a melting point of 116 to 117 °C. Further, the 50% effective concentration (EC50) in data set [1] (setting [5]) amounted to 5.6 nM. The Emax in data set [1] (setting [6]) is -16%. In data set [2] (setting [7]), the Ki is 5.7 ± 0.8 nM. For the same molecule, in data set [3], the “β-arrestin (Tango) % activ at 1 μM” value turned out to be 13% and the Emax is 47%. For the same molecule, the EC50 in data set [3] (setting [8]) worked out at 8 nM.

As for `O=C1NCCc2ccc(OCCCCN3CCCN(c4cccc(Cl)c4Cl)CC3)cc21` [Compound 6, 7-(4-(4-(2,3-dichlorophenyl)-1,4-diazepan-1-yl)butoxy)-3,4-dihydroisoquinolin-1(2H)-one], the melting point is 86 to 88 °C.

As for `Clc1cccc(N2CCCN(CCCCOc3ccc4scnc4c3)CC2)c1Cl` [Compound 7, 5-(4-(4-(2,3-dichlorophenyl)-1,4-diazepan-1-yl)butoxy)benzo[d]thiazole], the melting point fell in the range of 82 to 84 °C.

In turn, `Clc1cccc(N2CCCN(CCCOc3ccc4scnc4c3)CC2)c1Cl` [Compound 8, 5-(3-(4-(2,3-dichlorophenyl)-1,4-diazepan-1-yl)propoxy)benzo[d]thiazole] returned a melting point of 93 to 94 °C. Moreover, the Emax in data set [1] (setting [6]) was -26%.

With `O=c1ccc2ccc(OCCCN3CCCN(c4cccc(Cl)c4Cl)CC3)cc2[nH]1` [Compound 15, 7-(3-(4-(2,3-dichlorophenyl)-1,4-diazepan-1-yl)propoxy)quinolin-2(1H)-one], the melting point was in the range of 117 to 118 °C. The molecule further had an EC50 in data set [1] (setting [5]) of 13 nM. Besides, the Emax in data set [1] (setting [6]) amounted to 64%. The Ki in data set [2] (setting [7]) stood at 3.4 ± 0.2 nM. Also, in data set [3] (setting [8]), the EC50 came to 2.2 nM. The Emax in data set [3] was 84%.

`O=c1[nH]c2ccc(OCCCN3CCCN(c4cccc(Cl)c4Cl)CC3)cc2[nH]1` [Compound 19, 5-(3-(4-(2,3-dichlorophenyl)-1,4-diazepan-1-yl)propoxy)-1H-benzo[c]imidazol-2(3H)-one]: the melting point is 148 to 150 °C. In addition, the “cAMP (GloSensor) activity in words (merged EC50/Emax cell)” value (from here on “cAMP … (merged EC50/Emax cell)”) in data set [1] was “neutral”. Besides, the Ki in data set [2] (setting [7]) amounted to 4.5 ± 0.2 nM. The EC50 in data set [3] (setting [8]) was found to be 8.5 nM. Also, in data set [3], the Emax was 48%.

In turn, `Clc1cccc(N2CCN(CCCOc3ccc4cn[nH]c4c3)CC2)c1Cl` [Compound 20, 6-(3-(4-(2,3-dichlorophenyl)piperazin-1-yl)propoxy)-1H-indazole] showed a melting point of 159 to 161 °C. In data set [1] (setting [5]), this molecule showed an EC50 of 9.7 nM. The Emax in data set [1] (setting [6]) is -22%. Moreover, in data set [2] (setting [7]), the Ki turned out to be 104 ± 13 nM. Further, in data set [3], the “β-arrestin (Tango) % activ at 1 μM” value is reported as 45% and the Emax is 90%. In addition, the EC50 in data set [3] (setting [8]) was found to be 59 nM.

In the case of `Clc1cccc(C2CCN(CCCCOc3ccc4scnc4c3)CC2)c1Cl` [Compound 21, 5-(4-(4-(2,3-dichlorophenyl)piperidin-1-yl)butoxy)benzo[d]thiazole], the melting point fell in the range of 79 to 81 °C. For the same molecule, in data set [1], the half-maximal effective concentration (EC50) came out at 21 nM and the Emax was -27%. For the same molecule, the Ki in data set [2] stood at 42 ± 4 nM. Also, in data set [3], the “β-arrestin (Tango) % activ at 1 μM” value came out at 26% and the Emax was 81%. Also, the concentration for a half-maximal effect (EC50) in data set [3] (setting [8]) is 82 nM.

`Clc1cccc(N2CCN(CCCOc3ccc4scnc4c3)CC2)c1Cl` [Compound 23, 5-(3-(4-(2,3-dichlorophenyl)piperazin-1-yl)propoxy)benzo[d]thiazole] showed a melting point of 127 to 129 °C. The 50% effective concentration (EC50) in data set [1] (setting [5]) amounted to 9.8 nM. Besides, the Emax in data set [1] (setting [6]) was -16%. Further, the Ki in data set [2] (setting [7]) was found to be 30 ± 5 nM. Besides, in data set [3], the “β-arrestin (Tango) % activ at 1 μM” value is given as 48% and the Emax came to 91%. Further, the half-maximal effective concentration (EC50) in data set [3] (setting [8]) stood at 107 nM.

As to `O=c1[nH]c2ccc(OCCCCN3CCC(c4cccc(Cl)c4Cl)CC3)cc2[nH]1` [Compound 24, 5-(4-(4-(2,3-dichlorophenyl)piperidin-1-yl)butoxy)-1H-benzo[d]imidazol-2(3H)-one], the melting point lay within 180 to 182 °C.

On to `O=C1CCc2ccc(Oc3cccc(CN4CCN(c5cccc(Cl)c5Cl)CC4)c3)cc2N1` [Compound 30, 7-(3-((4-(2,3-dichlorophenyl)piperazin-1-yl)methyl)phenoxy)-3,4-dihydro quinolin-2(1H)-one], for which the melting point lay in the range of 182 to 183 °C. For the same molecule, in data set [1], the “cAMP … (merged EC50/Emax cell)” value is given as “neutral”. The Ki in data set [2] (setting [7]) was 113 ± 18 nM. In addition, in data set [3], the EC50 worked out at 297 nM, the “β-arrestin (Tango) % activ at 1 μM” value came to 9% and the Emax was 58%.

In the case of `O=C1NCCc2ccc(OCCCCN3CCC(c4cccc(Cl)c4Cl)CC3)cc21` [Compound 33, 7-(4-(4-(2,3-dichlorophenyl)piperidin-1-yl)butoxy)-3,4-dihydroisoquinolin-1(2H)-one], the melting point lay within 113 to 114 °C. Further, the “cAMP … (merged EC50/Emax cell)” value in data set [1] is recorded as “neutral”. For the same molecule, the Ki in data set [2] (setting [7]) was 20 ± 3 nM. Besides, in data set [3], the EC50 is 24 nM, the “β-arrestin (Tango) % activ at 1 μM” value turned out to be 26% and the Emax turned out to be 64%.

`Clc1cccc(N2CCN(CCCCOc3ccc4scnc4c3)CC2)c1Cl` [Compound 36, 5-(4-(4-(2,3-dichlorophenyl)piperazin-1-yl)butoxy)benzo[d]thiazole] showed a melting point of 93 to 94.5 °C. The “cAMP … (merged EC50/Emax cell)” value in data set [1] was “neutral”. Further, the Ki in data set [2] (setting [7]) came to 17 ± 3 nM. In data set [3], the EC50 stood at 59 nM, the “β-arrestin (Tango) % activ at 1 μM” value is 13% and the Emax was found to be 64%.

As to `O=C1CCc2ccc(OCCCCN3CCN(c4cccc5c4OCCO5)CC3)cc2N1` [Compound 40, 7-(4-(4-(2,3-dihydrobenzo[b][1,4]dioxin-5-yl)piperazin-1-yl)butoxy)-3,4-dihydroquinolin-2(1H)-one], the “cAMP … (merged EC50/Emax cell)” value in data set [1] is listed as “neutral”. Further, in data set [2] (setting [7]), the Ki came to 0.3 ± 0.02 nM. The 50% effective concentration (EC50) in data set [3] (setting [8]) came to 1.5 nM. For the same molecule, the Emax in data set [3] turned out to be 33%.

For the molecule `O=C1CCc2ccc(OCCCCN3CCN(c4cccc5c4OCCO5)CC3)nc2N1` [Compound 41, 7-(4-(4-(2,3-dihydrobenzo[b][1,4]dioxin-5-yl)piperazin-1-yl)butoxy)-3,4-dihydro-1,8-naphthyridin-2(1H)-one], the concentration giving a half-maximal response (EC50) in data set [1] (setting [5]) was found to be 0.4 nM; in data set [3] (setting [8]) it was 0.6 nM. The figures for the Emax in data set [1] (setting [6]) and in data set [3] were -19% and 31%, respectively. Also, in data set [2] (setting [7]), the inhibition constant Ki amounted to 0.45 ± 0.02 nM.

As for `CC(=O)Nc1cc(OCCCCN2CCN(c3cccc(Cl)c3Cl)CC2)ccc1C` [Compound 43, N-(5-(4-(4-(2,3-dichlorophenyl)piperazin-1-yl)butoxy)-2-methylphenyl)acetamide], the “cAMP … (merged EC50/Emax cell)” value in data set [1] is recorded as “neutral”. The inhibition constant (Ki) in data set [2] (setting [7]) amounted to 72 ± 4 nM. Further, in data set [3] (setting [8]), the EC50 turned out to be 9.2 nM. Besides, the Emax in data set [3] is 59%.

With `O=C(CCCN1CCC(O)(c2ccc(Cl)cc2)CC1)c1ccc(F)cc1` [haloperidol, reference compound], the “catalepsy (latency to move, inclined screen test)” value in data set [4] is listed as “inducing catalepsy”.

The term melting point denotes the temperature, or range, at which the solid turns liquid. For orientation: EC50 means the concentration that produces a half-maximal response. A word on the Emax: it is the greatest response seen or fitted, relative to the assay's reference. As usually defined, the Ki is a measure of affinity in units of concentration, obtained from inhibition or displacement.
